One experiment deals with HCT-116. Nature of the experiment: Growth inhibition of human HCT116 cells after 72 hrs by MTS assay. The experiment is classed as functional, cell-based. Particulars: HCT-116, 72 h.
The target in experiment [1] is T1, Kinesin-like protein KIF23 (Homo sapiens) (UniProt Q02241).
T1 sequence (whole entry): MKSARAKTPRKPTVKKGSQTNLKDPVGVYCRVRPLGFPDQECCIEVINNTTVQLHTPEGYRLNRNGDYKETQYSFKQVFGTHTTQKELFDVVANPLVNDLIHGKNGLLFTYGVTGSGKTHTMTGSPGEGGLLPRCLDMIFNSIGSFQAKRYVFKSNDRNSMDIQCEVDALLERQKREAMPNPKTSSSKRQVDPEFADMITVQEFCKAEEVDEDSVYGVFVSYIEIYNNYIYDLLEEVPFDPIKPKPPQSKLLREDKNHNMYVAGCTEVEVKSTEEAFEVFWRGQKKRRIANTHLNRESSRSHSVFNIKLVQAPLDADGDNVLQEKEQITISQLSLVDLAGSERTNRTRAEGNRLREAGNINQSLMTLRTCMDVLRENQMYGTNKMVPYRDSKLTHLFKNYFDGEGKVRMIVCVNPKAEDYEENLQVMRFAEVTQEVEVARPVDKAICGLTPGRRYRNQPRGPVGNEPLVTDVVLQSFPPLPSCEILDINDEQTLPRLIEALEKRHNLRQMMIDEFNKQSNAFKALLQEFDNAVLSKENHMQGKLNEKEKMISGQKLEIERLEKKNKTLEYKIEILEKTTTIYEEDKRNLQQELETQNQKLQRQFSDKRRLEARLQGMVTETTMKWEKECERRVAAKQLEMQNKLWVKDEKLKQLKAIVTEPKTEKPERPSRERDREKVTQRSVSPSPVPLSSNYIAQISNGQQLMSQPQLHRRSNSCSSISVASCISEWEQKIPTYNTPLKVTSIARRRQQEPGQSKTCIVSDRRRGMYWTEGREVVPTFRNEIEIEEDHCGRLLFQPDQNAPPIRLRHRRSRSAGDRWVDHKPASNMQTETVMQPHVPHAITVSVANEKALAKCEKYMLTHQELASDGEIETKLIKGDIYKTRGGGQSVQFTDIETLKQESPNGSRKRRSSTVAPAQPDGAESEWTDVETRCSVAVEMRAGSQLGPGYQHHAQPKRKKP
Nature of the experiment: Inhibition of microtubule-stimulated MKLP1 motor domain (1 to 446) (unknown origin) ATPase activity at 6.3 uM.

Experiment [2] has as its target T2, Kinesin-like protein KIF11 (Homo sapiens, UniProt P52732).
T2 sequence (P52732 whole entry): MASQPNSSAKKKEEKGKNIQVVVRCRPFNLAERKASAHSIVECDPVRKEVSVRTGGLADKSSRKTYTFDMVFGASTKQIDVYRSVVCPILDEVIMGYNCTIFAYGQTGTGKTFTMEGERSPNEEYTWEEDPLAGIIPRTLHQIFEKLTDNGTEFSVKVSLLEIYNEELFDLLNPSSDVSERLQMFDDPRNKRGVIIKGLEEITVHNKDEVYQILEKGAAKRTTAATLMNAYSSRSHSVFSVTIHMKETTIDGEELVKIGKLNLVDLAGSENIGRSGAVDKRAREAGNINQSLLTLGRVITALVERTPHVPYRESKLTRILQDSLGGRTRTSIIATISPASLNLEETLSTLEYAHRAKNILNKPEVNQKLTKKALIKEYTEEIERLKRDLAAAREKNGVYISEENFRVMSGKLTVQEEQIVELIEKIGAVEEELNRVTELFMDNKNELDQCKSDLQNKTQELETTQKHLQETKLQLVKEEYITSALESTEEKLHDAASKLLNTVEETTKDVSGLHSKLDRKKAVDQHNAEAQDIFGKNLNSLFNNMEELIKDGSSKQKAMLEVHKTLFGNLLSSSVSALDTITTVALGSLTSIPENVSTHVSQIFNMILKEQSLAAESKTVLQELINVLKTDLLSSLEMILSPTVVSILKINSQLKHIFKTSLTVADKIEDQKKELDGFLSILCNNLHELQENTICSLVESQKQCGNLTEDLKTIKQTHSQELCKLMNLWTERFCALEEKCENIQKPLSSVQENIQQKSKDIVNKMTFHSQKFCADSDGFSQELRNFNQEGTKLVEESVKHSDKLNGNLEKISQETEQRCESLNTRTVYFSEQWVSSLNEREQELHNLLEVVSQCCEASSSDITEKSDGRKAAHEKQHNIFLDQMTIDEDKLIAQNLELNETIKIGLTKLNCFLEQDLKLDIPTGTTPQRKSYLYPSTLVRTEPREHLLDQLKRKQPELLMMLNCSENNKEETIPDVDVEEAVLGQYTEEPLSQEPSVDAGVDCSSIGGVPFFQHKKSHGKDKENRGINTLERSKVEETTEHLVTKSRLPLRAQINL
Briefly: Inhibition of His-tagged KSP motor domain (1 to 369) (unknown origin) assessed as inhibition of microtubule-stimulated KSP ATPase activity preincuabted for 30 mins followed by ATP addition measured after 15 mins by Kinase-Glo assay. A general note: Kinase-Glo reads ATP consumption through a luciferase reaction.

Active and inactive are the calls of the source. No cut-off for these calls is given here.

A word on the IC50: it is the concentration needed to halve the response being measured. For the compound `COc1ccc(C2(SC[C@H](N)C(=O)O)c3ccccc3CCc3ccccc32)cc1`, the IC50 came out at 28 nM in the experiment on HCT-116 and 14 nM in experiment [2]. The inhibition entry in experiment [1] is “inactive”.

Consider `N[C@@H](CSC1(c2ccc(C(F)(F)F)cc2)c2ccccc2CCc2ccccc21)C(=O)O`, for which the figures for the IC50 (in the experiment with HCT-116; in experiment [2]) were 11 nM and 21 nM, respectively. For the same compound, the inhibition entry in experiment [1] is “inactive”.

Source of the values: ChEMBL document CHEMBL3632570, “Structure-Guided Design of Novel l-Cysteine Derivatives as Potent KSP Inhibitors” (ACS Med Chem Lett, 2015).
